In patent US20130217702A1 (Richter Gedeon Nyrt., priority 2010, published 2013):
Read-outs that look alike come from different tables or passages of the source.

Assays:
[1] = target: T1, human recombinant bradykinin B1 receptor (Homo sapiens, UniProt P46663); assay: Human recombinant bradykinin B1 receptor competitive radioligand binding
T1 construct: host or cells: CHO cells, clone hB1-A5
T1 sequence (P46663 1-353): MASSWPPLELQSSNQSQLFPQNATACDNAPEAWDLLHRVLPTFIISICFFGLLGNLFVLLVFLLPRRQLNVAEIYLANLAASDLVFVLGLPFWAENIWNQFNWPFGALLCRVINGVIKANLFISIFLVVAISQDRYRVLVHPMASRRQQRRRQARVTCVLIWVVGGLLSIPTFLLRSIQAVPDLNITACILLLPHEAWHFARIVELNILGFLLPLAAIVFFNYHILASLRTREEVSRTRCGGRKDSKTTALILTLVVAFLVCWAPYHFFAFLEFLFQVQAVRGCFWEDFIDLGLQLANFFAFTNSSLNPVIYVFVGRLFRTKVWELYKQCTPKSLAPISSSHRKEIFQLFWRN
In short: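 Competition radioligand binding on CHO-expressed hB1 membranes, using [3,4-prolyl-3,4-^3H(N)]-[Des-Arg^10] Kallidin as tracer, 15 min at 25° C. Excess Lys-des-Arg^9-Bradykinin (10 μM) set nonspecific binding. Sigmoidal fits of at least seven concentrations gave IC50, converted to Ki via Cheng-Prusoff; KD from Scatchard.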

[2] = target: T2, recombinant human B1 receptors (Homo sapiens, UniProt P46663); assay: Functional assay: antagonist potency by cytosolic calcium measurement (plate reader fluorimeter) in CHO-B1 cells, agonist LysDABK; assay type: cell-based
T2 construct: host or cells: CHO (CHO-B1)
T2 sequence (P46663 1-353): T1 sequence (P46663 1-353)
In short: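 IC50 is the concentration giving half-maximal inhibition of the LysDABK (EC80) calcium response, fitted from at least three experiments. CHO cells stably expressing human B1 were dye-loaded, exposed to compound for 20-25 min, then read by fluo-4 fluorescence (ΔF/F) at 37 °C.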

[3] = hB1 expressed in CHO cells, [3H]-[Des-Arg10] Kallidin radioligand, read-out: B1 binding
[4] = CHO-B1 cells, inhibition of LysDABK (EC80)-evoked [Ca2+]i elevation, read-out: B1 func.

With `COc1ccc2c(c1)cc(-c1nc(C)no1)n2-c1ccc(CNC(=O)C2(NC(=O)c3cccnc3F)CC2)cc1` [Example 116, 2-Fluoro-N-(1-{4-[5-methoxy-2-(3-methyl-[1,2,4]oxadiazol-5-yl)-indol-1-yl]-benzylcarbamoyl}-cyclopropyl)-nicotinamide] as the compound, how does the Ki [1, 3] read?
Its Ki is 20 to 100 nM.

What about the IC50 [2, 4] of the same compound?
Its IC50 is 20 to 100 nM.

What does the source list for `Cc1ncc(C(=O)NC2(C(=O)NCc3ccc(-n4c(-c5noc(C)n5)c(Cl)c5ccccc54)cc3)CC2)cn1` [Example 185, 2-Methyl-pyrimidine-5-carboxylic acid (1-{4-[3-chloro-2-(5-methyl-[1,2,4]oxadiazol-3-yl)-indol-1-yl]-benzylcarbamoyl}-cyclopropyl)-amide]?
Ki [1, 3]: < 20 nM; IC50 [2, 4]: < 20 nM

How did the Ki [1, 3] turn out when `COC(=O)c1cc2ccccc2n1-c1ccc(CNC(=O)C2(NC(=O)c3cc(OC)no3)CC2)cc1` [Example 14, 1-{4-[({1-[(3-Methoxy-isoxazole-5-carbonyl)-amino]-cyclopropanecarbonyl}-amino)-methyl]-phenyl}-1H-indole-2-carboxylic acid methyl ester] was run?
The Ki was less than 20 nM.

What about the IC50 [2, 4] of the same compound?
The IC50 was less than 20 nM.

How did the Ki [1, 3] turn out when `Cc1nc(-c2c(Cl)c3cc(F)ccc3n2-c2ccc(CNC(=O)C3(NC(=O)c4cccnc4Cl)CC3)cc2)no1` [Example 85, 2-Chloro-N-(1-{4-[3-chloro-5-fluoro-2-(5-methyl-[1,2,4]oxadiazol-3-yl)-indol-1-yl]-benzylcarbamoyl}-cyclopropyl)-nicotinamide] was run?
The Ki was less than 20 nM.

What about the IC50 [2, 4] of the same compound?
The IC50 was less than 20 nM.

What does the source list for `COc1cc(C(=O)NC2(C(=O)NCc3ccc(-n4c(-c5noc(C)n5)c(Cl)c5cc(F)ccc54)cn3)CC2)on1` [Example 62, 3-Methoxy-isoxazole-5-carboxylic acid [1-({5-[3-chloro-5-fluoro-2-(5-methyl-[1,2,4]oxadiazol-3-yl)-indol-1-yl]-pyridin-2-ylmethyl}-carbamoyl)-cyclopropyl]-amide]?
Ki [1, 3]: < 20 nM; IC50 [2, 4]: < 20 nM

With `Cc1nc(-c2c(Cl)c3ccccc3n2-c2ccc(CNC(=O)C3(NC(=O)C4CNC(=O)N4)CC3)cc2)no1` (stereo not shown) [Example 122, 2-Oxo-imidazolidine-4-carboxylic acid (1-{4-[3-chloro-2-(5-methyl-[1,2,4]oxadiazol-3-yl)-indol-1-yl]-benzylcarbamoyl}-cyclopropyl)-amide] as the compound, how does the Ki [1, 3] read?
The Ki was 20 to 100 nM.

And the IC50 [2, 4]?
The IC50 was 20 to 100 nM.

Which results are given for `COc1ccc2c(c1)c(Cl)c(-c1nc(C)no1)n2-c1ccc(CNC(=O)C2(NC(=O)c3cccnc3F)CC2)cc1` [Example 118, N-(1-{4-[3-Chloro-5-methoxy-2-(3-methyl-[1,2,4]oxadiazol-5-yl)-indol-1-yl]-benzylcarbamoyl}-cyclopropyl)-2-fluoro-nicotinamide]?
Ki [1, 3]: < 20 nM; IC50 [2, 4]: < 20 nM

Which Ki [1, 3] does the source give for `Cc1nc(-c2c(Cl)c3ccccc3n2-c2ccc(CNC(=O)C3(NC(=O)CC(F)(F)F)CC3)cc2)no1` [Example 163, 1-(3,3,3-Trifluoro-propionylamino)-cyclopropanecarboxylic acid 4-[3-chloro-2-(5-methyl-[1,2,4]oxadiazol-3-yl)-indol-1-yl]-benzylamide] here?
Its Ki is less than 20 nM.

And the IC50 [2, 4]?
Its IC50 is less than 20 nM.

Which results are given for `COc1ccc2c(c1)cc(-c1nnc(C)o1)n2-c1ccc(CNC(=O)C2(NC(=O)c3cncc(C(F)(F)F)c3)CC2)cc1` [Example 125, N-(1-{4-[5-Methoxy-2-(5-methyl-[1,3,4]oxadiazol-2-yl)-indol-1-yl]-benzylcarbamoyl}-cyclopropyl)-5-trifluoromethyl-nicotinamide]?
Ki [1, 3]: < 20 nM; IC50 [2, 4]: < 20 nM

What does the source list for `Cn1nnc(-c2c(Cl)c3ccccc3n2-c2ccc(CNC(=O)C3(NC(=O)c4cncc(C(F)(F)F)c4)CC3)cc2)n1` [Example 30, N-(1-{4-[3-chloro-2-(2-methyl-2H-tetrazol-5-yl)-indol-1-yl]-benzylcarbamoyl}-cyclopropyl)-5-trifluoromethyl-nicotinamide]?
Ki [1, 3]: < 20 nM; IC50 [2, 4]: < 20 nM

For `Cc1nc(-c2c(Cl)c3ccccc3n2-c2ccc(CNC(=O)C3(NC(=O)c4ccncc4F)CC3)cc2)no1` [Example 97, N-(1-{4-[3-Chloro-2-(5-methyl-[1,2,4]oxadiazol-3-yl)-indol-1-yl]-benzylcarbamoyl}-cyclopropyl)-3-fluoro-isonicotinamide], which Ki [1, 3] is on record?
Its Ki is less than 20 nM.

What about the IC50 [2, 4] of the same compound?
The IC50 was 20 to 100 nM.

For `Cc1nc(-c2c(Cl)c3ccccc3n2-c2ccc(CNC(=O)C3(NC(=O)c4cccc(C#N)c4)CC3)cc2)no1` [Example 146, N-(1-{4-[3-Chloro-2-(5-methyl-[1,2,4]oxadiazol-3-yl)-indol-1-yl]-benzylcarbamoyl}-cyclopropyl)-3-cyano-benzamide], which Ki [1, 3] is on record?
Its Ki is less than 20 nM.

What about the IC50 [2, 4] of the same compound?
Its IC50 is less than 20 nM.

`Cc1nc(-c2c(Cl)c3cc(Cl)ccc3n2-c2ccc(CNC(=O)C3(NC(=O)c4ccnc(F)c4)CC3)cc2)no1` [Example 74, N-(1-{4-[3,5-Dichloro-2-(5-methyl-[1,2,4]oxadiazol-3-yl)-indol-1-yl]-benzylcarbamoyl}-cyclopropyl)-2-fluoro-isonicotinamide] was tested. Which Ki [1, 3] did it give?
Its Ki is less than 20 nM.

And the IC50 [2, 4]?
The IC50 was less than 20 nM.

What does the source list for `Cn1nnc(-c2c(Cl)c3cc(Cl)ccc3n2-c2ccc(CNC(=O)C3(NC(=O)C(F)(F)F)CC3)c(F)c2)n1` [Example 22, 1-(2,2,2-Trifluoro-acetylamino)-cyclopropanecarboxylic acid 4-[3,5-dichloro-2-(2-methyl-2H-tetrazol-5-yl)-indol-1-yl]-2-fluoro-benzylamide]?
Ki [1, 3]: < 20 nM; IC50 [2, 4]: < 20 nM

`COc1cc(C(=O)NC2(C(=O)NCc3ccc(-n4c(C(=O)N(C)C)c(Cl)c5ccccc54)cc3)CC2)on1` [Example 35, 3-Chloro-1-{4-[({1-[(3-methoxy-isoxazole-5-carbonyl)-amino]-cyclopropane-carbonyl}-amino)-methyl]-phenyl}-1H-indole-2-carboxylic acid dimethylamide] was tested. Which Ki [1, 3] did it give?
Its Ki is less than 20 nM.

What about the IC50 [2, 4] of the same compound?
The IC50 was 20 to 100 nM.

Which results are given for `CN1CCN(C(=O)C2CCN(S(=O)(=O)c3ccc(NCC(c4ccccc4)c4ccccc4)c(C(=O)N4CCOCC4)c3)CC2)CC1` [NVP-SAA164, 4-{2-[(2,2-diphenyl-ethyl)-amino]-5-{4-[4-[(4-methyl-1-piperazinyl)-carbonyl]-1-piperidinyl]-sulfonyl}-benzoyl}-morpholine, reference compound]?
Ki ([1]; reference compounds, binding test, measured by the applicant, read-out: Ki): 8 nM; IC50 ([2]; reference compounds, functional test, measured by the applicant, read-out: IC50): 33 nM

Which Ki [1, 3] does the source give for `Cc1cc(C(=O)NC2(C(=O)NCc3ccc(-n4c(-c5nnn(C)n5)c(Cl)c5ccccc54)cc3)CC2)no1` [Example 26, 5-Methyl-isoxazole-3-carboxylic acid (1-{4-[3-chloro-2-(2-methyl-2H-tetrazol-5-yl)-indol-1-yl]-benzylcarbamoyl}-cyclopropyl)-amide] here?
Its Ki is less than 20 nM.

What about the IC50 [2, 4] of the same compound?
The IC50 was less than 20 nM.

Which Ki [1, 3] does the source give for `Cc1nc(-c2c(Cl)c3ccccc3n2-c2ccc(CNC(=O)C3(NC(=O)c4cccs4)CC3)cc2)no1` [Example 172, Thiophene-2-carboxylic acid (1-{4-[3-chloro-2-(5-methyl-[1,2,4]oxadiazol-3-yl)-indol-1-yl]-benzylcarbamoyl}-cyclopropyl)-amide] here?
The Ki was less than 20 nM.

What about the IC50 [2, 4] of the same compound?
Its IC50 is less than 20 nM.

With `Cc1noc(-c2cc3cc(F)ccc3n2-c2ccc(CNC(=O)C3(NC(=O)CC(F)(F)F)CC3)cc2)n1` [Example 101, 1-(3,3,3-Trifluoro-propionylamino)-cyclopropanecarboxylic acid 4-[5-fluoro-2-(3-methyl-[1,2,4]oxadiazol-5-yl)-indol-1-yl]-benzylamide] as the compound, how does the Ki [1, 3] read?
The Ki was less than 20 nM.

And the IC50 [2, 4]?
The IC50 was less than 20 nM.

Which Ki [1, 3] does the source give for `COc1cc(C(=O)NC2(C(=O)N[C@H](C)c3ccc(-n4c(-c5noc(C)n5)c(Cl)c5ccccc54)cc3)CC2)on1` [Example 41, (R)-3-Methoxy-isoxazole-5-carboxylic acid [1-(1-{4-[3-chloro-2-(5-methyl-[1,2,4]oxadiazol-3-yl)-indol-1-yl]-phenyl}-ethylcarbamoyl)-cyclopropyl]-amide] here?
The Ki was less than 20 nM.

And the IC50 [2, 4]?
Its IC50 is less than 20 nM.

What does the source list for `COc1cc(C(=O)NC2(C(=O)NCc3ccc(-n4c(-c5nnn(C)n5)c(Cl)c5ccccc54)cc3F)CC2)on1` [Example 15, 3-Methoxy-isoxazole-5-carboxylic acid (1-{4-[3-chloro-2-(2-methyl-2H-tetrazol-5-yl)-indol-1-yl]-2-fluorobenzylcarbamoyl}-cyclopropyl)-amide]?
Ki [1, 3]: < 20 nM; IC50 [2, 4]: < 20 nM

What does the source list for `Cc1nc(-c2c(Cl)c3cc(Cl)ccc3n2-c2ccc(CNC(=O)C3(NC(=O)C(F)(F)F)CC3)cc2)no1` [Example 65, 1-(2,2,2-Trifluoro-acetylamino)-cyclopropanecarboxylic acid 4-[3,5-dichloro-2-(5-methyl-[1,2,4]oxadiazo 1-3-yl)-indol-1-yl]-benzylamide]?
Ki [1, 3]: < 20 nM; IC50 [2, 4]: < 20 nM

Which Ki [1, 3] does the source give for `Cc1nc(-c2c(Cl)c3ccccc3n2-c2ccc(CNC(=O)C3(NC(=O)C4CCCO4)CC3)cc2)no1` (stereo not shown) [Example 136, Tetrahydro-furan-2-carboxylic acid (1-{4-[3-chloro-2-(5-methyl-[1,2,4]oxadiazol-3-yl)-indol-1-yl]-benzylcarbamoyl}-cyclopropyl)-amide] here?
The Ki was 20 to 100 nM.

What about the IC50 [2, 4] of the same compound?
The IC50 was 20 to 100 nM.
